# Laboratory results taken from paper PMC9807592, “New thioxothiazolidinyl-acetamides derivatives as potent urease inhibitors: design, synthesis, in vitro inhibition, and molecular dynamic simulation” (Scientific Reports, 2023).
# Where two headings read alike, the source gives them in different places.
# Tests used:
# [1] = In vitro cytotoxic evaluation (MTT assay); format: cell-based; details: human, MOLT-4 cells
# Procedure: MOLT-4 (human acute lymphoblastic leukemia) cells were cultures in RPMI-1640 medium supplemented with 10% heat-inactivated fetal bovine serum. Cell viability was measured by the MTT assay. MOLT-4 cells were seeded into 96-well micro-culture plates. After 24 h, the culture medium was replaced with a medium containing different concentrations of newly synthesized derivatives. Control wells were supplemented with the same volume of growth medium not containing any drugs. Cells were then incubated at 37 °C for 72 h. At the end of the exposure time, the medium was removed and MTT solution of 0.5 mg/ml was added to each well. The plates were incubated at 37 °C for 4 h, after which DMSO was added to each well to solubilize the formed formazan crystals, and the absorbance of each well was read with a microplate reader at 570 nm.
# [2] = tested on: methicillin-resistant Staphylococcus aureus (MRSA) isolates; test: Antimicrobial activity against resistant isolates; format: cell-based
# Procedure: Regarding the antibacterial activity of 6n and 6o against the standard strain of S. aureus, these derivatives were tested against methicillin-resistant Staphylococcus aureus (MRSA) isolates.
# (§1) Briefly, twofold serial dilutions of the compounds were prepared in Mueller–Hinton Broth (MHB, HiMedia) for bacterial strains and RPMI-1640 (Sigma-Aldrich) for yeast strain (Ranging 1–512 µg/ml). Then, 100 μL of each dilution was transferred into the well of a microtiter plate and inoculated with 100 μL of cell suspension with a final density of 1–5 × 10^3 CFU/ml for yeasts and 1–1.5 × 10^6 cells/ml for bacteria. Plates were incubated at proper temperature overnight, and the minimum inhibitory concentration (MIC) of compounds was determined as the lowest concentration that prevented visible growth of tested microorganisms compared with the growth in the control wells (wells without tested compounds). Moreover, the minimum bactericidal/fungicidal concentration (MBC/MFC) of compounds was determined by transferring the 10 µl of clear wells into the agar media. Standard antibacterial and antifungal agents (Ciprofloxacin and Fluconazole) were evaluated. All experiments were performed in duplicate[30],[31].
# S. aureus ATCC 25923 = test: Antimicrobial activity, broth microdilution (CLSI); format: cell-based; details: Staphylococcus aureus, ATCC25923
# Procedure: (§2) Then, 100 μL of each dilution was transferred into the well of a microtiter plate and inoculated with 100 μL of cell suspension with a final density of 1–5 × 10^3 CFU/ml for yeasts and 1–1.5 × 10^6 cells/ml for bacteria. Plates were incubated at proper temperature overnight, and the minimum inhibitory concentration (MIC) of compounds was determined as the lowest concentration that prevented visible growth of tested microorganisms compared with the growth in the control wells (wells without tested compounds). […] All experiments were performed in duplicate[30],[31].
# [3] = tested on: clinical isolate of P. vulgaris; test: Antimicrobial activity, broth microdilution (CLSI); format: cell-based; details: Proteus vulgaris
# Procedure: as §2
# E. coli ATCC 25922 = test: Antimicrobial activity, broth microdilution (CLSI); format: cell-based
# Procedure: as §2
# urease = urease (Canavalia ensiformis, UniProt P07374); test: biochemical; format: biochemical
# Procedure: The assay was performed exactly according to our previous report. Briefly, 850 μL of urea and 15 μL urease (0.135 units dissolved in PBS, pH 7.4) were added to 100 μL of the synthesized derivatives at different concentrations. After 30 min, to 100 μL of the incubated solution, 500 μL solution I (5.0 g phenol and 25.0 mg sodium nitroprusside in 500 mL water) was added followed by the addition of 500 μL of solution II (2.5 g sodium hydroxide, 4.2 mL sodium hypochlorite, and 5% chlorine in 500 mL water) which was further incubated at 37 °C for 30 min. The absorbance was determined by measuring indophenols at 625 nm. Thiourea was used as the standard inhibitor for urease. The IC50 values for all synthesized compounds were calculated using GraphPad Prism software (GraphPad Software, Inc., San Diego, CA)[20].
# C. albicans ATCC 10261 = test: Antimicrobial activity, broth microdilution (CLSI); format: cell-based; details: Candida albicans, ATCC10261
# Procedure: The antimicrobial activity of designed compounds was investigated using broth microdilution.
# as §1
# S. aureus biofilm = test: Inhibition of biofilm formation (crystal violet assay); format: cell-based; details: Staphylococcus aureus, read-out: inhibition in the development of biofilm by S. aureus
# Procedure: To evaluate the ability of the synthesized compounds 6a-i to prevent biofilm formation by standard species of S. aureus (ATCC25923) and MRSA strain, biofilms were pre-formed in 96 well plates, as previously described. Firstly, bacterial strains were inoculated into Tryptic Soy Broth (TSB) medium. The cells were cultivated on a shaker overnight for 180 r/min at 37 °C. Then, the suspension was centrifuged, and the cells were washed with PBS three times. Diluted cell suspension of strains was added into the wells with 1 × 10^6 final concentration. The plates were incubated for 4 h at 37 °C. After that, 100 μl of each of the dissolved compounds was added to a final concentration of […] in the wells. The plates were further incubated for 24 h at 37 °C. Following incubation, the crystal violet assay was performed to evaluate the inhibition of biofilm formation. For this purpose, the supernatant of the wells was aspirated gently, and the wells were washed three times with sterile distilled water. […] Assessment of biofilm formation was performed by transferring 100 μl of the destaining solution to a new plate and measuring the absorbance at 590 nm using a microplate reader. […] The mean absorbance (OD590 nm) of the samples was determined, and percentage inhibition was obtained using Eq. (1) as follows: 1 Percentageinhibition:ODblank-ODtest×100/ODblank
# [4] = Escherichia coli, ATCC25922, read-out: MIC
# Sequence of urease (P07374 whole entry, looked up): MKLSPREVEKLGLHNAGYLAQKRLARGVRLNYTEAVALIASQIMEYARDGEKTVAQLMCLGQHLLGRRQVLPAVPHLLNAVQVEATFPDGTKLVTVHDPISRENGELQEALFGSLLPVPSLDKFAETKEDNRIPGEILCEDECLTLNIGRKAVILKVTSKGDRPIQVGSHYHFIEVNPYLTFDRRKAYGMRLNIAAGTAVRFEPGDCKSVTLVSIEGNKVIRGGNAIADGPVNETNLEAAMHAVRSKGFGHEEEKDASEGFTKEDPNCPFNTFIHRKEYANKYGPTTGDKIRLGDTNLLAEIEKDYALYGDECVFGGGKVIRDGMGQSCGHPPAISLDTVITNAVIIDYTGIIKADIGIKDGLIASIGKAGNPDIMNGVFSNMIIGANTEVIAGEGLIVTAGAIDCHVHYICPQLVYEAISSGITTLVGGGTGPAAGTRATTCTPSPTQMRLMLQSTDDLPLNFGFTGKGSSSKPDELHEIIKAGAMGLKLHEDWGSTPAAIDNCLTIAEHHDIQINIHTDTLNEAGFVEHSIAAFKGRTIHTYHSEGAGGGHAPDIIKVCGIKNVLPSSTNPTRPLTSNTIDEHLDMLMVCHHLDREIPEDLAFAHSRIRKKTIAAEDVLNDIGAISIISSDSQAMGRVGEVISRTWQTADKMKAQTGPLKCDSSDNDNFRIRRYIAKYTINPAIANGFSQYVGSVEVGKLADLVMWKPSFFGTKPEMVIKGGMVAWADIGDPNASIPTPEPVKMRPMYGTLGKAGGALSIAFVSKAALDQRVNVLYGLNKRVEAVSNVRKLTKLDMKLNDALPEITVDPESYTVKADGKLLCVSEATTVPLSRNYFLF
smiles,measurement,setting,value
"C=CCNC(=O)CC1SC(=S)N(CC(C)C)C1=O (stereo not shown) [Compound 6o, N-allyl-2-(3-isobutyl-4-oxo-2-thioxothiazolidin-5-yl)acetamide]","viability at 72 h, 100 µM",[1],97.3 ± 3.5%
same,MIC,[2],512 µg/mL
same,MBC,S. aureus ATCC 25923,256 µg/mL
same,MIC,S. aureus ATCC 25923,128 µg/mL
same,MIC,[3],> 512 µg/mL
same,MIC,E. coli ATCC 25922,512 µg/mL
same,MBC,"E. coli ATCC 25922; Escherichia coli, ATCC25922",> 512 µg/mL
same,MIC,E. coli ATCC 25922; [4],512 µg/mL
same,IC50,urease,9.27 ± 1.65 µM
same,melting point,,164 to 166 °C
same,MIC,C. albicans ATCC 10261,> 512 µg/mL
same,inhibition at 512 µg/mL,S. aureus biofilm,27%
"CCCNC(=O)CC1SC(=S)N(CC(C)C)C1=O (stereo not shown) [Compound 6n, 2-(3-isobutyl-4-oxo-2-thioxothiazolidin-5-yl)-N-propylacetamide]","viability at 72 h, 100 µM",[1],96.4 ± 2.2%
same,MIC,[2],128 µg/mL
same,MBC,S. aureus ATCC 25923,> 512 µg/mL
same,MIC,S. aureus ATCC 25923,128 µg/mL
same,MIC,[3],> 512 µg/mL
same,MIC,E. coli ATCC 25922; [4],> 512 µg/mL
same,IC50,urease,2.38 ± 0.49 µM
same,melting point,,160 to 162 °C
same,MIC,C. albicans ATCC 10261,> 512 µg/mL
same,inhibition at 512 µg/mL,S. aureus biofilm,37%
